Each compound was assayed against IRAK4 (Homo sapiens (Human), UniProt Q9NWZ3) (assay: In vitro IRAK4 phosphorylation activity assay). Settings: [γ-33P]-ATP, myelin basic protein substrate, 40 minutes at room temperature; categories.
IRAK4, sequence (Q9NWZ3 whole entry): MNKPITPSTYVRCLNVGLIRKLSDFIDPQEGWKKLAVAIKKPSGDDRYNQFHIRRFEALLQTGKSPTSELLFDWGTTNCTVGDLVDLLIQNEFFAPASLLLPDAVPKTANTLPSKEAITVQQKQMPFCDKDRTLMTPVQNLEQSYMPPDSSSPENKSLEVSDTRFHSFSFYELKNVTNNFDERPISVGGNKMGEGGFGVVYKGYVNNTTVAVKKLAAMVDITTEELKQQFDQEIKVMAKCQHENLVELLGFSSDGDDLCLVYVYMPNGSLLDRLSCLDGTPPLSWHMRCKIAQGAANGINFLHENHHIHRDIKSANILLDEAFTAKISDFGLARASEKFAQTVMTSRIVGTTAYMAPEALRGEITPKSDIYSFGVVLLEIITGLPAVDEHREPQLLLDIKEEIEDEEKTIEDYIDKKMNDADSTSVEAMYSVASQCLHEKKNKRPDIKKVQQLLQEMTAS
Format: biochemical
How it was run: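 Radiometric filter-binding assay, no compound–kinase preincubation; 8 mM MOPS pH 7.0, 0.2 mM EDTA, 10 mM Mg acetate, 0.33 mg/mL myelin basic protein substrate, [γ-33P]-ATP. Reaction 40 min at room temperature, stopped with phosphoric acid, scintillation counting; IC50 reported in categories.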
`C[C@@H]1CCCCN1C(=O)CCc1cn(-c2ccccc2)c(NC(=O)c2cccc(-c3cn[nH]c3)c2)n1` [Example 30, (R)—N-(4-(3-(2-methylpiperidin-1-yl)-3-oxopropyl)-1-phenyl-1H-imidazol-2-yl)-3-(1H-pyrazol-4-yl)benzamide] showed an IC50 of less than 50 nM.
`COC[C@H]1CCCN1NC(=O)CCCc1cn(-c2ccccc2)c(NC(=O)c2cccc(-c3cn[nH]c3)c2)n1` [Example 54, (R)—N-(4-(4-((2-(methoxymethyl)pyrrolidin-1-yl)amino)-4-oxobutyl)-1-phenyl-1H-imidazol-2-yl)-3-(1H-pyrazol-4-yl)benzamide] showed an IC50 of less than 50 nM.
With `COC1CCC(NC(=O)CCCc2cn(-c3ccccc3)c(NC(=O)c3cccc(-c4cnn(C)c4)c3)n2)CC1` (stereo not drawn) [Example 161, N-(4-(4-((4-methoxycyclohexyl)amino)-4-oxobutyl)-1-phenyl-1H-imidazol-2-yl)-3-(1-methyl-1H-pyrazol-4-yl)benzamide] the IC50 was less than 50 nM.
In the case of `Cn1cc(-c2cccc(C(=O)Nc3nc(CCCC(=O)O)cn3-c3ccccc3)c2)cn1` [Example 140, 4-(2-(3-(1-methyl-1H-pyrazol-4-yl)benzamido)-1-phenyl-1H-imidazol-4-yl)butanoic acid], the IC50 is reported as 50 to 100 nM.
For `Cn1cc(-c2cccc(C(=O)Nc3nc(CCCC(=O)NC4CC4)cn3-c3ccccc3)c2)cn1` [Example 141, N-(4-(4-(cyclopropylamino)-4-oxobutyl)-1-phenyl-1H-imidazol-2-yl)-3-(1-methyl-1H-pyrazol-4-yl)benzamide], the IC50 was less than 50 nM.
Work on `CN1CCN(CCCCc2cn(-c3ccccc3)c(NC(=O)c3cccc(-c4cnn(C)c4)c3)n2)CC1` [Example 221, 3-(1-methyl-1H-pyrazol-4-yl)-N-(4-(4-(4-methylpiperazin-1-yl)butyl)-1-phenyl-1H-imidazol-2-yl)benzamide] yielded an IC50 of less than 50 nM.
`Cn1cc(-c2cccc(C(=O)Nc3nc(CCCCC(=O)N4CCC(N)CC4)cn3-c3ccccc3)c2)cn1` [Example 213, N-(4-(5-(4-aminopiperidin-1-yl)-5-oxopentyl)-1-phenyl-1H-imidazol-2-yl)-3-(1-methyl-1H-pyrazol-4-yl)benzamide] was tested, and the IC50 was less than 50 nM.
`CC(C)OC(=O)CCCc1cn(-c2ccccc2)c(NC(=O)c2cccc(-c3cn[nH]c3)c2)n1` [Example 70, isopropyl 4-(2-(3-(1H-pyrazol-4-yl)benzamido)-1-phenyl-1H-imidazol-4-yl)butanoate] gave an IC50 of less than 50 nM.
`O=C(Nc1nc(CCCCCNc2ccccc2)cn1-c1ccccc1)c1cccc(-c2cn[nH]c2)c1` [Example 117, N-(1-phenyl-4-(5-(phenylamino)pentyl)-1H-imidazol-2-yl)-3-(1H-pyrazol-4-yl)benzamide] showed an IC50 of less than 50 nM.
`Cn1cc(-c2cccc(C(=O)Nc3nc(CCCC(=O)N[C@H]4CC[C@H](N)CC4)cn3-c3ccccc3)c2)cn1` [Example 215, N-(4-(4-(((1R,4R)-4-aminocyclohexyl)amino)-4-oxobutyl)-1-phenyl-1H-imidazol-2-yl)-3-(1-methyl-1H-pyrazol-4-yl)benzamide] was tested, and the IC50 was 50 to 100 nM.
In the case of `O=C(Nc1nc(CCCCN2CCCC2=O)cn1-c1ccccc1)c1cccc(-c2ccc3[nH]ncc3c2)c1` [Example 258, 3-(1H-indazol-5-yl)-N-(4-(4-(2-oxopyrrolidin-1-yl)butyl)-1-phenyl-1H-imidazol-2-yl)benzamide], the IC50 is reported as less than 50 nM.
`N[C@@H]1CCCN(C(=O)CCc2cn(-c3ccccc3)c(NC(=O)c3cccc(-c4cn[nH]c4)c3)n2)C1` [Example 40, (R)—N-(4-(3-(3-aminopiperidin-1-yl)-3-oxopropyl)-1-phenyl-1H-imidazol-2-yl)-3-(1H-pyrazol-4-yl)benzamide] showed an IC50 of less than 50 nM.
Work on `O=C(CCc1cn(-c2ccccc2)c(NC(=O)c2cncc(-c3cn[nH]c3)c2)n1)Nc1ccccc1` [Example 4, N-(4-(3-oxo-3-(phenylamino)propyl)-1-phenyl-1H-imidazol-2-yl)-5-(1H-pyrazol-4-yl)nicotinamide] yielded an IC50 greater than 100 nM.
With `CNC(=O)Cc1cn(-c2ccccc2)c(NC(=O)c2ccccc2)n1` [Example 50, N-(4-(2-(methylamino)-2-oxoethyl)-1-phenyl-1H-imidazol-2-yl)benzamide] the IC50 was greater than 100 nM.
In the case of `O=C(Nc1nc(CCCCCC(=O)N2CCCCCC2)cn1-c1ccccc1)c1cccc(-c2ccc3[nH]ncc3c2)c1` [Example 241, N-(4-(6-(azepan-1-yl)-6-oxohexyl)-1-phenyl-1H-imidazol-2-yl)-3-(1H-indazol-5-yl)benzamide], the IC50 is reported as less than 50 nM.
Compound `CNC(=O)CCCCCc1cn(-c2ccccc2)c(NC(=O)c2cccc(-c3cn[nH]c3)c2)n1` [Example 94, N-(4-(6-(methylamino)-6-oxohexyl)-1-phenyl-1H-imidazol-2-yl)-3-(1H-pyrazol-4-yl)benzamide] has an IC50 of less than 50 nM.
Work on `COC[C@@H]1CCCN1NC(=O)CCCc1cn(-c2ccccc2)c(NC(=O)c2cccc(-c3cn[nH]c3)c2)n1` [Example 53, (S)—N-(4-(4-((2-(methoxymethyl)pyrrolidin-1-yl)amino)-4-oxobutyl)-1-phenyl-1H-imidazol-2-yl)-3-(1H-pyrazol-4-yl)benzamide] yielded an IC50 of less than 50 nM.
In the case of `Cn1cc(-c2cccc(C(=O)Nc3nc(CCCC(=O)Nc4cc[nH]n4)cn3-c3ccccc3)c2)cn1` [Example 217, N-(4-(4-((1H-pyrazol-3-yl)amino)-4-oxobutyl)-1-phenyl-1H-imidazol-2-yl)-3-(1-methyl-1H-pyrazol-4-yl)benzamide], the IC50 is reported as less than 50 nM.
Compound `O=C(Nc1nc(CCCCCCN2CCCC2=O)cn1-c1ccccc1)c1cccc(-c2ccc3[nH]ncc3c2)c1` [Example 259, 3-(1H-indazol-5-yl)-N-(4-(6-(2-oxopyrrolidin-1-yl)hexyl)-1-phenyl-1H-imidazol-2-yl)benzamide] has an IC50 of less than 50 nM.
`Cn1cc(-c2cccc(C(=O)Nc3nc(CCCCC(=O)NCCN4CCOCC4)cn3-c3ccccc3)c2)cn1` [Example 198, 3-(1-methyl-1H-pyrazol-4-yl)-N-(4-(5-((2-morpholinoethyl)amino)-5-oxopentyl)-1-phenyl-1H-imidazol-2-yl)benzamide] gave an IC50 of less than 50 nM.
`COC[C@H]1CCCN1C(=O)CCCCCc1cn(-c2ccccc2)c(NC(=O)c2cccc(-c3cn[nH]c3)c2)n1` [Example 101, (R)—N-(4-(6-(2-(methoxymethyl)pyrrolidin-1-yl)-6-oxohexyl)-1-phenyl-1H-imidazol-2-yl)-3-(1H-pyrazol-4-yl)benzamide] showed an IC50 of less than 50 nM.
For `Cn1cc(-c2cccc(C(=O)Nc3nc(CCCCC(=O)N4CCC[C@H](C(=O)O)C4)cn3-c3ccccc3)c2)cn1` [Example 208, (S)-1-(5-(2-(3-(1-methyl-1H-pyrazol-4-yl)benzamido)-1-phenyl-1H-imidazol-4-yl)pentanoyl)piperidine-3-carboxylic acid], the IC50 was less than 50 nM.
Work on `O=C(Nc1nc(CCCCCCN2CCCCC2)cn1-c1ccc(F)cc1F)c1cccc(-c2cn[nH]c2)c1` [Example 302, N-(1-(2,4-difluorophenyl)-4-(6-(piperidin-1-yl)hexyl)-1H-imidazol-2-yl)-3-(1H-pyrazol-4-yl)benzamide] yielded an IC50 greater than 100 nM.
Work on `CN1CCN(N(C)C(=O)CCCc2cn(-c3ccccc3)c(NC(=O)c3cccc(-c4cnn(C)c4)c3)n2)CC1` [Example 218, N-(4-(4-(methyl(4-methylpiperazin-1-yl)amino)-4-oxobutyl)-1-phenyl-1H-imidazol-2-yl)-3-(1-methyl-1H-pyrazol-4-yl)benzamide] yielded an IC50 of less than 50 nM.
`O=C(Nc1nc(CCCCN2CCCCC2)cn1-c1ccccc1)c1cccc(-c2cccc3[nH]ncc23)c1` [Example 257, 3-(1H-indazol-4-yl)-N-(1-phenyl-4-(4-(piperidin-1-yl)butyl)-1H-imidazol-2-yl)benzamide] gave an IC50 of less than 50 nM.
For `CN1CCN(NC(=O)CCc2cn(-c3ccccc3)c(NC(=O)c3cccc(-c4cn[nH]c4)c3)n2)CC1` [Example 9, N-(4-(3-((4-methylpiperazin-1-yl)amino)-3-oxopropyl)-1-phenyl-1H-imidazol-2-yl)-3-(1H-pyrazol-4-yl)benzamide], the IC50 was greater than 100 nM.
Work on `O=C(Nc1nc(CCCO)cn1-c1ccccc1)c1cccc(-c2cn[nH]c2)c1` [Example 105, N-(4-(3-hydroxypropyl)-1-phenyl-1H-imidazol-2-yl)-3-(1H-pyrazol-4-yl)benzamide] yielded an IC50 of less than 50 nM.
`Cn1cc(-c2cccc(C(=O)Nc3nc(CCCC(=O)N4CCCC[C@@H]4CCO)cn3-c3ccccc3)c2)cn1` [Example 174, (R)—N-(4-(4-(2-(2-hydroxyethyl)piperidin-1-yl)-4-oxobutyl)-1-phenyl-1H-imidazol-2-yl)-3-(1-methyl-1H-pyrazol-4-yl)benzamide] was tested, and the IC50 was less than 50 nM.
Work on `O=C(CCCc1cn(-c2ccccc2)c(NC(=O)c2cccc(-c3cccc4cn[nH]c34)c2)n1)NC1CC1` [Example 248, N-(4-(4-(cyclopropylamino)-4-oxobutyl)-1-phenyl-1H-imidazol-2-yl)-3-(1H-indazol-7-yl)benzamide] yielded an IC50 greater than 100 nM.
Work on `Cn1cc(-c2cccc(C(=O)Nc3nc(CCCC(=O)NC4CCOC4)cn3-c3ccccc3)c2)cn1` (stereo not drawn) [Example 179, 3-(1-methyl-1H-pyrazol-4-yl)-N-(4-(4-oxo-4-((tetrahydrofuran-3-yl)amino)butyl)-1-phenyl-1H-imidazol-2-yl)benzamide] yielded an IC50 of less than 50 nM.
`O=C(CCCCCc1cn(-c2ccccc2)c(NC(=O)c2cccc(-c3cn[nH]c3)c2)n1)Nc1ccccc1` [Example 90, N-(4-(6-oxo-6-(phenylamino)hexyl)-1-phenyl-1H-imidazol-2-yl)-3-(1H-pyrazol-4-yl)benzamide] was tested, and the IC50 was less than 50 nM.
Compound `O=C(CCc1cn(-c2ccccc2)c(NC(=O)c2cccc(-c3c[nH]nc3[N+](=O)[O-])c2)n1)Nc1ccccc1` [Example 1, 3-(3-nitro-1H-pyrazol-4-yl)-N-(4-(3-oxo-3-(phenylamino)propyl)-1-phenyl-1H-imidazol-2-yl)benzamide] has an IC50 greater than 100 nM.
Work on `O=C(Nc1nc(CCCNc2ccccc2)cn1-c1ccccc1)c1cccc(-c2cn[nH]c2)c1` [Example 109, N-(1-phenyl-4-(3-(phenylamino)propyl)-1H-imidazol-2-yl)-3-(1H-pyrazol-4-yl)benzamide] yielded an IC50 of less than 50 nM.
